Results on four molecules are retold here after patent US20100249138A1, “MPZP: A SMALL MOLECULE CORTICOTROPIN-RELEASING FACTOR TYPE 1 RECEPTOR (CRF1) ANTOGONIST” (priority 2007, published 2010).

The test system of data set [1] is cocaine-induced conditioned place preference. To be noted: rats; cited from earlier work.
In data set [2] the test system is cocaine self-administration. To be noted: cited from earlier work.
Data set [3] deals with T1, CRF1 receptors (Rattus norvegicus, UniProt P35353).
T1 sequence (P35353 24-415): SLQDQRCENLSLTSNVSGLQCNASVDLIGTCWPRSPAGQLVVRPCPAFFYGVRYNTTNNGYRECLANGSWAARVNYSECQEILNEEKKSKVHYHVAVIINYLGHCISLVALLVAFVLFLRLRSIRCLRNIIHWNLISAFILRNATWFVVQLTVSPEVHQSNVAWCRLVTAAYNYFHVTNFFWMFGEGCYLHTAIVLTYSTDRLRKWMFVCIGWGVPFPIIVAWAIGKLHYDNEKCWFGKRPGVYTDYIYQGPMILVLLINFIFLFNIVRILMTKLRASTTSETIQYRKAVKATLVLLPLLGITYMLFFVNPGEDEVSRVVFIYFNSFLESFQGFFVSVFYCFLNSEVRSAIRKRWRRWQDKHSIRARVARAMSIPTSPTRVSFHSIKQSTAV
The data set can be described thus: [125I]-Tyr0-sauvagine competition binding, rat cerebellar membrane homogenates. Further details: from tissue; host or cells: rat cerebellum, membrane homogenate. To be noted: six independent experiments, read-out: PIC50, displacement of specific [125I]-Tyr0-sauvagine binding (converted). As to the method:
Binding activity of MPZP was determined in a competition assay using […] (2200 Ci/mmol; Perkin Elmer, Waltham, Mass.) as the radioligand. Cerebellum was homogenized in homogenizing buffer (Dulbecco's phosphate-buffered saline [PBS]:1.5 mM KH2PO4, 8.1 mM Na2HPO4, 2.7 mM KCl, 138 mM NaCl, pH 7.2, supplemented with 10 mM MgCl2, 2 mM EGTA) using a Polytron (Dispersing and Mixing Technology, Kinematica, Littau-Lucerne, Switzerland) at setting 6 for 2×15 seconds on ice. The homogenate was centrifuged at 45,000×g for 20 minutes at 4° C. The pellet was resuspended and spun at 45,000×g for 20 minutes at 4° C. The final pellet was resuspended in assay buffer (homogenizing buffer supplemented with protease inhibitor; 1 tablet/10 ml; Sigma CAT#58829-20TAB, St. Louis, Mo., pH 7.4) using a Polytron.
Med. Chem. (2000) 8:181-189], whose structural formula is shown below.
Total binding was determined using assay buffer in lieu of a CRF1 antagonist, and nonspecific binding was determined in the presence of 1 μM unlabeled sauvagine. The final radioligand concentration was 0.2 nM, and the reaction was incubated at room temperature for 2 hours. […] The pellet-containing tip was cut off and counted in an automated 10-detector gamma counter (MicroMedic Apex, ICN Biomedical, Costa Mesa, Calif.) at 80% efficiency. […]

Data set [4] has as its system plasma corticosterone. To be noted: rats; cited from earlier work.
For data set [5], the system named is rat pituitary corticotropes. To be noted: cited from earlier work.
Data set [6] concerns precipitated-withdrawal induced anxiety-like behavior. Description: Defensive burying test during mecamylamine-precipitated nicotine withdrawal. Format: in vivo, rat. To be noted: for Burying / Freezing / Grooming / Latency to bury / Rearing / Resting: Vehicle + Mecamylamine. As to the method: Nicotine hydrogen tartrate salt (Sigma, Natick) was dissolved in saline at pH 7.4 and experimenter-administered via minipump or self-administered via indwelling jugular catheter. Doses are expressed as free base. Mecamylamine (Sigma; Natick, Mass.) was dissolved in saline and administered i.p. (1 ml/kg). The CRF1 antagonist (N,N-bis(2-methoxyethyl)-3-(4-methoxy-2-methylphenyl)-2,5-dimethyl-pyrazolo-[1,5α]pyrimidin-7-amine, or MPZP) was synthesized at The Scripps Research Institute by Dr. P. Wirshing, dissolved in 20% hydroxypropyl beta-cyclodextrin (Cavitron, Cargill) in isotonic saline at pH 4.5 and administered s.c. (2 ml/kg, 45 to 60 min before testing). Rat/human CRF was supplied by Dr. Jean Rivier, The Salk Institute. CRF was dissolved in 1× PBS (pH 7.4) and prepared fresh few minutes before intracerebral injection. The doses and time of injections were selected based on previous studies [Richardson et al., Program No. 783. 4 Neuroscience Meeting Planner. Atlanta, Ga.: Society for Neuroscience, OnlineI (2006); Specio et al., Program No. 777. 11 Neuroscience Meeting Planner. Washington, D.C.: Society for Neuroscience, Online (2004)].
Rats were subcutaneously implanted with osmotic minipumps delivering either saline (n=33) or nicotine (n=31) (3.16 mg/kg/day, free base, s.c.) as described above. After 14 days of pump exposure, testing was performed 5-8 hours into the dark cycle in a standard cage with 2 inches of bedding (wood shavings) along the bottom and a small hole centered in one side one inch above the bedding to accommodate the shock-probe. Rats were habituated (45 minutes) to the test cage for 2 days prior to testing. On the test day, mecamylamine or its vehicle were administered 30 minutes before behavioral testing, and the CRF1 antagonist or its vehicle were administered 45 minutes before behavioral testing (n=7-9 per group). On contact with the probe and shock delivery (using a Coulbourn precision shocker, 1.5 mA, AC, <1 s), verified by a startle response, the probe was deactivated. The latency and duration of probe-directed burying, rearing, resting, grooming, and freezing were measured from videotape over a 10 minutes period by an experimenter blind to the subject treatment condition using a computer program.

The conditions of data set [7]: Debruyne et al. 2003; cited from earlier work.
Data set [8] has as its system extracellular CRF-L-IR in the central nucleus of the amygdala. Description: In vivo microdialysis and radioimmunoassay of CRF-like immunoreactivity in the central nucleus of the amygdala. Further details: species or system rat. To be noted: mecamylamine 1.5 mg/kg i.p. The protocol:
The changes in interstitial levels of CRF-like-immunoreactivity (CRF-L-IR) in the central nucleus of the amygdala were examined during mecamylamine-precipitated withdrawal (1.5 mg/kg, ip). Rats were subcutaneously implanted with osmotic minipumps (model 2m12, 14 days, 5 μL/hour; Durect Corporation, Palo Alto, Calif.) delivering either saline (non-dependent, n=5) or nicotine (nicotine-dependent, n=7) (3.16 mg/kg/day, free base, s.c.) and a microdialysis guide cannula (SciPro Inc., Sanborn N.Y., USA) stereotaxically positioned 1 mm above the central nucleus of the amygdala using the following coordinates (AP −3.3 mm; ML ±4.2 mm; V −6.5 mm, from dura with flat skull). After 14 days of pump exposure, a microdialysis probe (1 mm PES membrane, 15 kDA MW cutoff; SciPro Inc., Sanborn N.Y., USA) was lowered into the guide cannula and allowed to equilibrate for 12 hours (1 μl/min flow rate, artificial cerebrospinal fluid). […]
Dialysate CRF-like immunoreactivity was quantified with a sensitive and specific solid-phase radioimmunoassay (RIA) adapted from Zorrilla et al. Psychopharmacology (Berl). […] Wells were rinsed, blotted dry and separated, and residual radioactivity was counted by a gamma counter for 5 minutes per well.

Data set [9] concerns anxiety-like behavior of naive rats. Description: Defensive burying test after bilateral CRF infusion in the central nucleus of the amygdala. Format: in vivo, rat. To be noted: CRF 30 pmol total dose, bilateral intra-amygdala. The protocol: To confirm that increases of CRF in the central nucleus of the amygdala elicit anxiety-like behavior, anxiety-like behavior was measured using the defensive burying test, after bilateral infusion of CRF (30 pmol total dose) or vehicle in the central nucleus of the amygdala of naive rats one minute before beginning of the burying test. CRF administered directly into the amygdala increased the time spent burying and decreased the latency to bury during the first 5 minutes after infusion (Table 2),
Rats were anesthetized with an isoflurane-oxygen mixture, and 26-gauge stainless steel guide cannulas (Plastics One, Roanoke, Va.) aimed 2 mm above the central nucleus of the amygdala stereotaxically were implanted bilaterally: AP −2.6 mm; ML ±4.2 mm; V −5.2 mm, from dura, with flat skull (Paxinos and Watson, 1998). The guide cannulas were secured to the skull with dental cement and anchor screws, and guide cannulas were maintained with stylets. Intracerebral injections were administered with the use of injectors (33-gauge; Plastics One) that projected 2 mm past the guide cannula to the central nucleus of the amygdala. The injectors were attached to 70 cm of calibrated polyethylene-20 tubing preloaded with drug solution. This cohort of rats had been extensively handled previously in the context of a food intake study, in which they received administration of a CRF1 receptor antagonist subcutaneously and into the central nucleus of the amygdala in a Latin-square design. A washout period of 7 days was imposed before the present study with all subjects maintained on chow, during which animals were handled daily. Rats were randomly assigned to CRF vs. vehicle conditions balanced for previous diet history, which was statistically unrelated to performance in the defensive burying test. The CRF group (n=5) was infused bilaterally (30 pmol total dose) with a volume of 0.25 μL/side over 30 seconds using Hamilton microsyringes and 2 infusion pumps (Harvard Apparatus, Holliston, Mass.). The control group (n=5) received the same volume of PBS. Injectors were removed from guide cannulae 1 minute after the end of the infusions, and rats were returned to the home cage for 1 minute before being tested in the defensive burying test.

[10] abbreviates: nicotine-dependent rats, mecamylamine injection.

Read-outs that look alike come from different tables or passages of the source. No end group written: not given here.

`CCCCN(CC)c1nc(C)nc2c1c(C)cn2-c1c(C)cc(C)cc1C` [CP-154,526]: the “cocaine-induced conditioned place preference” value in data set [1] was “reduced”. Besides, the cocaine self-administration result in data set [2] (0.5 mg/kg/injection cocaine, rats) is recorded as “reduced”; in data set [2] (rats with limited daily drug access (1 h/day), pretreatment) it was “dose-dependent decreases”. Further, in data set [2] (rats, pretreatment), the food-reinforced responding result is listed as “does not affect”.

Turning to `CCC(CC)Nc1cc(C)nc2c(-c3ccc(OC)cc3C)c(C)nn12` [DMP904], in data set [3], the IC50 was 2.14 nM. Further, the “stress-induced increase of plasma corticosterone” value in data set [4] is “dose-dependently inhibited”. In addition, the ACTH release entry in data set [5] was “inhibited”.

Take `CNC1(C)C2CCC(C2)C1(C)C` (centres unmarked) [mecamylamine, reference compound]: in [6] (nicotine pump), the Burying is 271 ± 46 s, the Freezing turned out to be 1 ± 1 s, the Grooming was found to be 16 ± 5 s and the Latency to bury was 31 ± 9 s. Further, in [6] (nicotine pump), the Rearing is 105 ± 25 s and the Resting is 49 ± 21 s. Further, in data set [6] (setting [10]), the “change in latency to bury compared to vehicle injection” value is reported as −70% and the “change in time spent burying compared to vehicle injection” value is “+243%”. Also, in data set [6] (non-dependent rats, mecamylamine injection), the anxiety-like behavior result is on record as “did not alter”. For the same molecule, in data set [6] (saline pump), the Burying stood at 135 ± 39 s, the Freezing was 1 ± 1 s, the Grooming is 30 ± 12 s and the Latency to bury came to 87 ± 25 s. In data set [6] (saline pump), the Rearing is 118 ± 14 s and the Resting amounted to 67 ± 24 s. In addition, the pharmacokinetic half-life result in data set [7] was “about 1 hour”. Further, the “increase of CRF-L-IR in the central amygdala compared with baseline” value in [8] (nicotine-dependent rats) is on record as “over 500%”. The “increase of CRF-L-IR in the central amygdala” value in data set [8] (saline-treated (non-dependent) rats) is “not observed”.

As for “CRF: Corticotropin-releasing factor, a 41 amino-acid residue peptide; rat/human CRF infused into the central nucleus of the amygdala (SEEPPISLDLTFHLLREVLEMARAEQLAQQAHSNRKLMEII; ends and bridges not checked; UniProt P06850 154-194, looked up)”, in [9], the Grooming stood at 30 ± 27 s, the “Latency to bury” value is recorded as 165 ± 91 s and the Rearing turned out to be 91 ± 15 s. The molecule further showed a Burying in data set [9] (first 5 minutes after infusion) of 7.1 ± 4.7 s.
